The values that follow are results of earlier work, collected in patent US20140093564A1, “PHARMACEUTICAL COMPOSITIONS OF COMBINATIONS OF DIPEPTIDYL PEPTIDASE-4 INHIBITORS WITH SIMVASTATIN” (MERCK SHARP & DOHME LTD., priority 2011, published 2014).

Each structure is given as a SMILES string.

For the data set the following is noted: oral administration, human Type 2 diabetics.

Turning to `N#C[C@@H]1CCCN1C(=O)CNC12CC3CC(CC(O)(C3)C1)C2` [vildagliptin, (S)-1-[(3-hydroxy-1-adamantyl)amino]acetyl-2-cyano-pyrrolidine], the HbA1c levels entry is “significantly reduced”, the fasting glucose result is reported as “reduce” and the postprandial glucose excursion result is “reduce”.
`N[C@@H](CC(=O)N1CCn2c(nnc2C(F)(F)F)C1)Cc1cc(F)c(F)cc1F` [sitagliptin, (2R)-4-oxo-4-[3-(trifluoromethyl)-5,6-dihydro[1,2,4]triazolo[4,3-α]pyrazin-7(8H)-yl]-1-(2,4,5-trifluorophenyl)butan-2-amine]: the HbA1c levels result was “significantly reduced”, the fasting glucose result was “reduce” and the postprandial glucose excursion result was “reduce”.
